Source: patent US20120004244A1, “Bis Aromatic Compounds for Use as LTC4 Synthase Inhibitors” (BIOLIPOX AB, priority 2009, published 2012)
pIC50: −log10 of the molar value.

Molecular target: T1, Recombinant human LTC4 synthase (Homo sapiens, UniProt Q16873)
T1 construct: made in house; host or cells: Pichia pastoris ('Piccia pastoralis' [sic])
T1 sequence (Q16873 1-150): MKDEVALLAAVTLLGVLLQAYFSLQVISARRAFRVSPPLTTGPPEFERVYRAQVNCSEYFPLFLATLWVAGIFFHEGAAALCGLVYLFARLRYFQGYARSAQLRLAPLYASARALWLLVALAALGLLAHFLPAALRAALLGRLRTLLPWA
Assay: LTC4 synthase in vitro assay (LTA4 to LTC4, HTRF detection)
Assay type: biochemical
Method in brief: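 Purified recombinant human LTC4 synthase expressed in Pichia (0.5 μg/mL total protein) was preincubated with inhibitor at 10 μM final for 10 min at room temperature in PBS pH 7.4 with 5 mM GSH. LTA4 was then added at 2.5 μM final, and after 5 min at room temperature LTC4 was detected by HTRF.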

pIC50 | inhibition at 10 µM (5 min, total concentration of title compound in the assay 10 μM) | SMILES
7.48 | 100% | CN(c1ccc(Cl)cc1)c1ccc(C(=O)c2ccc(NS(=O)(=O)c3ccc(Cl)cc3)c(C(=O)O)c2)nc1 [4:5, 5-{5-[(4-Chlorophenyl)(methyl)amino]picolinoyl}-2-(4-chlorophenylsulfonamido)-benzoic acid]
7.77 | – | O=C(c1ccc(NS(=O)(=O)c2ccc(Cl)cc2)c(C(=O)O)c1)c1ccc(N(CC2CC2)c2ccc(Cl)cc2)cn1 [4:6, 2-(4-Chlorophenylsulfonamido)-5-{5-[(4-chlorophenyl)(cyclopropylmethyl)-amino]picolinoyl}benzoic acid]
7.14 | – | CN(c1ccc(Cl)cc1)c1ccc(C(=O)c2ccc(C(=O)c3ccccc3)c(C(=O)O)c2)nc1 [5:1, 2-Benzoyl-5-{5-[(4-chlorophenyl)(methyl)amino]picolinoyl}benzoic acid]
7.11 | – | CN(c1ccc(C(F)(F)F)cc1)c1ccc(C(=O)c2ccc(C(=O)c3ccccc3)c(C(=O)O)c2)nc1 [5:2, 2-Benzoyl-5-{5-[(methyl)(4-trifluoromethylphenyl)amino]picolinoyl}benzoic acid]
7.30 | – | COc1ccc(C(=O)c2ccc(C(=O)c3ccc(N(C)c4ccc(Cl)cc4)cn3)cc2C(=O)O)cc1 [5:3, 5-{5-[(4-Chlorophenyl)(methyl)amino]picolinoyl}-2-(4-methoxybenzoyl)benzoic acid]
7.54 | – | COc1ccc(C(=O)c2ccc(C(=O)c3ccc(N(CC4CC4)c4ccc(Cl)cc4)cn3)cc2C(=O)O)cc1 [5:4]
7.34 | – | COc1ccc(C(=O)c2ccc(C(=O)c3ccc(N(CC4CC4)c4ccc(Cl)cc4F)cn3)cc2C(=O)O)cc1 [5:5]
6.40 | – | COc1ccc(C(=O)c2ccc(C(=O)c3ccc(N(CC(F)(F)F)c4ccc(Cl)cc4F)cn3)cc2C(=O)O)cc1 [5:6, 5-{5-[(4-Chloro-2-fluorophenyl)(2,2,2-trifluoroethyl)amino]picolinoyl}-2-(4-methoxybenzoyl)benzoic acid]
7.44 | – | COc1cccc(C(=O)c2ccc(C(=O)c3ccc(N(C)c4ccc(Cl)cc4)cn3)cc2C(=O)O)c1 [5:7, 5-{5-[(4-Chlorophenyl)(methyl)amino]picolinoyl}-2-(3-methoxybenzoyl)benzoic acid]
6.81 | – | COc1ccccc1C(=O)c1ccc(C(=O)c2ccc(N(C)c3ccc(Cl)cc3)cn2)cc1C(=O)O [5:8, 5-{5-[(4-Chlorophenyl)(methyl)amino]picolinoyl}-2-(2-methoxybenzoyl)benzoic acid]
7.00 | – | CCOc1ccc(C(=O)c2ccc(C(=O)c3ccc(N(C)c4ccc(Cl)cc4)cn3)cc2C(=O)O)cc1 [5:9, 5-{5-[(4-Chlorophenyl)(methyl)amino]picolinoyl}-2-(4-ethoxybenzoyl)benzoic acid]
7.17 | – | COc1ccc(C(=O)c2ccc(C(=O)c3ccc(N(C)c4ccc(Cl)cc4)cn3)cc2C(=O)O)c(OC)c1 [5:10, 5-{5-[(4-Chlorophenyl)(methyl)amino]picolinoyl}-2-(2,4-dimethoxybenzoyl)-benzoic acid]
6.67 | – | CN(c1ccc(Cl)cc1)c1ccc(C(=O)c2ccc(C(=O)c3ccc(C(F)(F)F)cc3)c(C(=O)O)c2)nc1 [5:11]
6.69 | – | CN(c1ccc(Cl)cc1)c1ccc(C(=O)c2ccc(C(=O)c3ccc([N+](=O)[O-])cc3)c(C(=O)O)c2)nc1 [5:12]
6.31 | – | CN(c1ccc(Cl)cc1)c1ccc(C(=O)c2ccc(C(=O)C(C)(C)C)c(C(=O)O)c2)nc1 [5:13, 5-{5-[(4-Chlorophenyl)(methyl)amino]picolinoyl}-2-(2,2-dimethylpropionyl)-benzoic acid]
7.11 | – | CCOc1ccc(C(=O)c2ccc(C(=O)c3ccc(N(C)c4ccc(Cl)cc4)cn3)cc2C(=O)O)cc1OCC [5:14, 5-{5-[(4-Chlorophenyl)(methyl)amino]picolinoyl}-2-(3,4-diethoxybenzoyl)-benzoic acid]
6.90 | – | CN(c1ccc(Cl)cc1)c1ccc(C(=O)c2ccc(C(=O)c3ccc(F)cc3)c(C(=O)O)c2)nc1 [5:15, 5-{5-[(4-Chlorophenyl)(methyl)amino]picolinoyl}-2-(4-fluorobenzoyl)benzoic acid]
